Reference: PubChem BioAssay (NCI)
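Method: 48-hour compound exposure of cells in 96-well plates, five concentrations, linear interpolation of endpoints. GI50 is the concentration that inhibits growth by half. TGI: total growth inhibition.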

Tests used:
Assay in all cases: NCI anticancer screen, dose series, 48 h
HCT-116 colon = tested on: HCT-116 colon
NCI-H23 lung = tested on: NCI-H23 lung
MDA-MB-231 breast = tested on: MDA-MB-231 breast
OVCAR-5 ovarian = tested on: OVCAR-5 ovarian
SF-295 CNS = tested on: SF-295 CNS
OVCAR-8 ovarian = tested on: OVCAR-8 ovarian
SF-539 CNS = tested on: SF-539 CNS
SK-MEL-5 melanoma = tested on: SK-MEL-5 melanoma
HOP-62 NSCLC = tested on: HOP-62 NSCLC
OVCAR-4 ovarian = tested on: OVCAR-4 ovarian

SMILES | TGI (HCT-116 colon) | TGI (NCI-H23 lung) | TGI (MDA-MB-231 breast) | TGI (OVCAR-5 ovarian) | TGI (SF-295 CNS) | TGI (OVCAR-8 ovarian) | TGI (SF-539 CNS) | TGI (SK-MEL-5 melanoma) | TGI (HOP-62 NSCLC) | TGI (OVCAR-4 ovarian) | GI50 (SF-295 CNS)
O=C1c2ccccc2-c2nnc3c(c21)-c1ccccc1C3 | > 100 µM | > 100 µM | > 100 µM | > 100 µM | > 100 µM | > 100 µM | > 100 µM | > 100 µM |  |  | 
COC1CC(COCc2ccccc2)CC(OC)O1 (centres undefined) | > 100 µM | > 100 µM |  | > 100 µM | > 100 µM | > 100 µM | > 100 µM | > 100 µM | > 100 µM |  | 
CC[C@@]1(C)CCC2c3ccc(O)cc3CC[C@H]2C1C (some centres undefined) | 31.9 µM | 36.2 µM |  | 33.3 µM | 34.6 µM | 33.8 µM | 35.4 µM | 30.7 µM | 33 µM | 35.7 µM | 
Cc1cc(/C=C/c2cc[n+](C)c3ccccc23)c(O)c2ncccc12 | 7.34 µM | 4.86 µM |  | 16 µM | 15.5 µM | 16.1 µM | 1.99 µM | 4.98 µM | 15 µM | 32.4 µM | 
CC(=O)Nc1c(C)cc2c(nc3n2CCC3OC(C)=O)c1[N+](=O)[O-] (centres undefined) | > 100 µM | > 100 µM | > 100 µM | > 100 µM | > 100 µM | > 100 µM | > 100 µM | > 100 µM |  | > 100 µM | 
Cc1c(N2CCN(C)CC2)nc2ccc(Cl)cc2c1-c1ccccc1 | 40 µM | 55.4 µM |  |  | 31.2 µM | 31.8 µM | 33.9 µM | 28.8 µM | 36.6 µM | 36.9 µM | 
CC(=O)O[C@H]1CC[C@@]2(C)C(=CC[C@@H]3[C@@H]2CC[C@]2(C)c4c(C)nn(-c5ccccc5)c4C[C@@H]32)C1 | > 100 µM | 31.3 µM | 50.6 µM | 68.1 µM | 12.9 µM | > 100 µM |  | > 100 µM | 35.2 µM | > 100 µM | 
CC1=C(O)C(=O)C2C(=O)C1C1Cc3ccccc3C21 (centres undefined) |  | > 100 µM |  | > 100 µM | > 100 µM | > 100 µM | > 100 µM | > 100 µM | > 100 µM | > 100 µM | 
CC(=O)Nc1ccc2c3c(cc(O)c2c1)N(C(=O)CCCCCCC(=O)N1CC(CCl)c2c1cc(O)c1cc(NC(C)=O)ccc21)CC3CCl (centres undefined) |  | 0.0228 µM |  | 0.243 µM | 3.19 µM | 0.346 µM | 0.0413 µM | < 0.0109 µM |  | > 100 µM | 
O=C(Nc1ccc2[nH]c(C(=O)N3CC(CCl)c4c3cc([N+](=O)[O-])c3ccccc43)cc2c1)Nc1ccc2[nH]c(C(=O)N3CC(CCl)c4c3cc([N+](=O)[O-])c3ccccc43)cc2c1 (centres undefined) | > 100 µM | > 100 µM | > 100 µM | > 100 µM | > 100 µM |  | > 100 µM | > 100 µM | > 100 µM | > 100 µM | 
NCCCC[C@H](N)C(=O)Nc1ccc(-c2nc3ccccc3s2)cc1 | 33 µM | 67.7 µM | 37.6 µM | 33.2 µM | 31 µM | 40.1 µM |  | 94.4 µM | 62 µM | > 100 µM | 
COC(O)C(=O)c1ccc2c(c1)CC1(C2)Cc2cc3c(cc2C1=O)CCC3 (centres undefined) | 34.8 µM | 56.2 µM | 73.3 µM | 52.3 µM | 44.1 µM |  | 35.4 µM | 29.4 µM | 38.8 µM | 30.4 µM | 
CCOc1ccc(N/C(=C(/C(Cl)=C(/Cl)N2CCCCC2)[N+](=O)[O-])n2nnc3ccccc32)cc1 | 37.7 µM | 29.7 µM | 44.5 µM | 32.5 µM | 49 µM |  | 36.9 µM | 29.9 µM | 42.6 µM |  | 
Nc1nc2ncc(CNc3ccc(C(=O)NC(CCC(=O)O)C(=O)O)cc3)nc2c(=O)[nH]1 (centres undefined) |  | > 100 µM |  | > 100 µM | > 100 µM | > 100 µM | > 100 µM | > 100 µM | > 100 µM | > 100 µM | 
CCC(=O)Nc1ccc(NC(C#N)c2cccc(Oc3ccccc3)c2)cc1 (centres undefined) | > 100 µM | > 100 µM |  | > 100 µM | > 100 µM | 73.4 µM | 74.2 µM | 48.1 µM | > 100 µM | > 100 µM | 
CC(C)N=C(N)NC#N | > 100 µM |  |  | > 100 µM | > 100 µM | > 100 µM | > 100 µM |  | > 100 µM | > 100 µM | 
O=[N+]([O-])C(=C(N1CCOCC1)N1CCOCC1)/C(Cl)=C(\Cl)Br | 30.8 µM | 34.1 µM | 31.8 µM | 32.4 µM | > 100 µM | 64 µM | 57.9 µM |  | > 100 µM | 39.5 µM | 

SMILES | TGI (HCT-116 colon) | TGI (NCI-H23 lung) | TGI (MDA-MB-231 breast) | TGI (OVCAR-5 ovarian) | TGI (SF-295 CNS) | TGI (OVCAR-8 ovarian) | TGI (SF-539 CNS) | TGI (SK-MEL-5 melanoma) | TGI (HOP-62 NSCLC) | TGI (OVCAR-4 ovarian) | GI50 (SF-295 CNS)
CCOC(=O)C1=CCOc2cc(N(C)C)ccc21 | > 100 µM | > 100 µM | > 100 µM |  | > 100 µM | > 100 µM | > 100 µM | > 100 µM | > 100 µM |  | 
N#CC(Cc1ccccc1)N(CCC1=CCCCC1)Cc1ccccc1 (centres undefined) | > 100 µM | > 100 µM | > 100 µM | > 100 µM | > 100 µM | > 100 µM |  | 51.9 µM | > 100 µM | > 100 µM | 
CN1C(=O)C2(C=CC(O)CC2)c2ccccc21 (centres undefined) | > 100 µM | > 100 µM | > 100 µM | > 100 µM | > 100 µM | > 100 µM |  | > 100 µM | > 100 µM | > 100 µM | 
COC(=O)c1ccc(N=NN(C)COc2ccc(Br)cc2)cc1 | > 100 µM | > 100 µM |  | > 100 µM | > 100 µM | > 100 µM | > 100 µM | > 100 µM | > 100 µM | > 100 µM | 
Cn1c(=O)c2c(nc3n2CCCC(=O)N3CC(O)CCl)n(C)c1=O (centres undefined) | > 100 µM | > 100 µM |  | > 100 µM | > 100 µM | > 100 µM |  | > 100 µM | > 100 µM | > 100 µM | 
CSc1nc(NC2OC(COC(C)=O)C(OC(C)=O)C(OC(C)=O)C2OC(C)=O)c2c(n1)OCC2=O (centres undefined) | > 100 µM | > 100 µM |  | > 100 µM | > 100 µM | > 100 µM | > 100 µM | > 100 µM | > 100 µM | > 100 µM | 
CCOC(=O)c1cc2/c(=C\c3ccc(N(C)C)cc3)c3ccccc3n2[n+]1C | 11.1 µM | 12.3 µM | 18.9 µM | 20.4 µM | 16.1 µM | 36.1 µM | 4.02 µM | 4.04 µM |  | 13.7 µM | 
COC(=O)C(Cc1c[nH]c2ccccc12)NC(=O)c1ccc(-c2ccc(Cl)cc2Cl)o1 (centres undefined) | > 100 µM | > 100 µM | > 100 µM | > 100 µM | > 100 µM | > 100 µM | 91 µM |  | > 100 µM | > 100 µM | 
COc1ccccc1-c1cc(=O)c2cc3c(cc2[nH]1)OCO3 | > 100 µM | > 100 µM |  |  | 62.6 µM | > 100 µM | 70.6 µM | > 100 µM | > 100 µM | 92 µM | 21.1 µM
Cc1ccc(/C(O)=C/C(=O)C(=O)NC23CC4CC(CC(C4)C2)C3)cc1 |  | > 10 µM | > 10 µM |  | > 10 µM | > 10 µM |  | > 10 µM | > 10 µM | > 10 µM | 
O=c1c2cc3c(=O)n4c(cc(-c5ccccc5)c5cc(Cl)ccc54)nc3cc2nc2cc(-c3ccccc3)c3cc(Cl)ccc3n12 | > 100 µM | > 100 µM | > 100 µM | > 100 µM | > 100 µM | > 100 µM | > 100 µM | > 100 µM | > 100 µM |  | 
COc1ccc(-c2cc(=O)c3cc(OC)ccc3[nH]2)cc1 | > 100 µM | > 100 µM |  | > 100 µM | > 100 µM | > 100 µM |  | > 100 µM | > 100 µM | > 100 µM | 
O=C(CN1CCOCC1)c1ccc2c(c1)oc(=O)n2CCN1CCOCC1 | > 100 µM |  | > 100 µM | > 100 µM | > 100 µM | > 100 µM | > 100 µM | > 100 µM | > 100 µM |  | 
COc1ccc(/C(Cl)=C(\C=N/O)c2ccc(OC)c(OC)c2)cc1OC | > 100 µM | > 100 µM |  | > 100 µM | > 100 µM | > 100 µM | > 100 µM | > 100 µM | > 100 µM | > 100 µM | 
CCCCCCCCCCCCCCCCCCNC(=S)/N=C\C1=C(O)c2ccccc2C1=O | 15.3 µM | 31.9 µM | 24.6 µM | 26.9 µM | 31.2 µM | 32 µM | 36.7 µM | 34.7 µM | 22.2 µM |  | 
CC(=O)OCC1OC(Nn2c(=O)[nH]c3ccccc3c2=O)C(OC(C)=O)C(OC(C)=O)C1OC(C)=O (centres undefined) | > 100 µM | > 100 µM | > 100 µM | > 100 µM | > 100 µM | > 100 µM | > 100 µM | > 100 µM | > 100 µM |  | 
Cc1ccc(S(=O)(=O)Oc2nc3ccccc3nc2OS(=O)(=O)c2ccc(C)cc2)cc1 | > 100 µM | > 100 µM | > 100 µM | > 100 µM | > 100 µM | > 100 µM | > 100 µM | 56.1 µM |  |  | 
